Substitutions are numbered along the chain they refer to.
How the values were obtained:
Test in all cases: isothermal titration calorimetry
Type in all cases: binding
Conditions in all cases: read-out: Ka (M^-1) (converted)
[1] = target: T1, eArgRS (E. coli arginyl-tRNA synthetase, ArgRS) (Escherichia coli, UniProt P11875, R324A)
T1 construct: gene argS; full length, 577 residues; pET-28a-SUMO in E. coli BL21(DE3), N-terminal His-SUMO tag cleaved by Ulp1; mutants made in pET22b/ArgRS
T1 sequence (P11875 1-577 R324A): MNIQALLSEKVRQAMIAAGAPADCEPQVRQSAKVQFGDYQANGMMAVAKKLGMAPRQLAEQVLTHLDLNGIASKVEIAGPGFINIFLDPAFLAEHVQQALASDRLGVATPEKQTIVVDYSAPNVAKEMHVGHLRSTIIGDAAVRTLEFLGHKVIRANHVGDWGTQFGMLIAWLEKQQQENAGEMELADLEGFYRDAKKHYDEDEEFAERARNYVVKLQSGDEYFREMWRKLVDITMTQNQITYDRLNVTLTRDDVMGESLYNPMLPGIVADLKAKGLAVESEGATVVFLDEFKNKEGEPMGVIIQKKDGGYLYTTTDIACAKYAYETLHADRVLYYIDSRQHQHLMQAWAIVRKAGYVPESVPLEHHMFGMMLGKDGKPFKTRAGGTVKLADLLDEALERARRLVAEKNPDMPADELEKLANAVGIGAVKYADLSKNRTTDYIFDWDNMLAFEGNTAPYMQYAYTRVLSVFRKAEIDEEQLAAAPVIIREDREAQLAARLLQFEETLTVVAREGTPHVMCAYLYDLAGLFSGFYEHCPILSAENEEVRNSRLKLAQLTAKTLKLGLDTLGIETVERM
Source text: (§1) isothermal titration calorimetry on eArgRS (E. coli arginyl-tRNA synthetase, ArgRS)

[2] = target: T2, eArgRS (E. coli arginyl-tRNA synthetase, ArgRS) (Escherichia coli, UniProt P11875, Y313A)
T2 construct: gene argS; full length, 577 residues; pET-28a-SUMO in E. coli BL21(DE3), N-terminal His-SUMO tag cleaved by Ulp1; mutants made in pET22b/ArgRS
T2 sequence (P11875 1-577 Y313A): T1 sequence (P11875 1-577 R324A) with Y313A, A324R
Source text: as §1

[3] = target: T3, eArgRS (E. coli arginyl-tRNA synthetase, ArgRS) (Escherichia coli, UniProt P11875)
T3 construct: gene argS; full length, 577 residues; pET-28a-SUMO in E. coli BL21(DE3), N-terminal His-SUMO tag cleaved by Ulp1; mutants made in pET22b/ArgRS
T3 sequence (P11875 1-577): T1 sequence (P11875 1-577 R324A) with A324R
Source text: as §1

N=C(N)NCCC[C@H](N)C(=O)O [L-arginine]
Kd [1]: 191 µM
Kd [2]: 80.6 µM
Kd [3]: 46.5 µM
